For orientation: IC50 means the point on the concentration scale where inhibition reaches its midpoint. Broadly, the inhibition is the share of the control response that was lost under treatment.

The source of these data is ChEMBL document CHEMBL5625254, “Design, synthesis and evaluation of ursodeoxycholic acid-cinnamic acid hybrids as potential anti-inflammatory agents by inhibiting Akt/NF-κB and MAPK signaling pathways” (Eur J Med Chem, 2023).

Series [1] has as its system RAW264.7. Kind of series: Anti-inflammatory activity in mouse RAW264.7 cells assessed as decrease in LPS-induced COX-2 mRNA level incubated for 24 hrs by RT-PCR analysis. The settings on record: dose 5-20 µM. It is filed as functional, cell-based.
Series [2] relates to RAW264.7. Kind of series: Anti-inflammatory activity in mouse RAW264.7 cells assessed as decrease in LPS-induced IL-6 level incubated for 24 hrs by ELISA. The class given is functional, cell-based. The settings on record: dose 5-20 µM.
Series [3] deals with RAW264.7. Kind of series: Anti-inflammatory activity in mouse RAW264.7 cells assessed as decrease in LPS-induced IL-6 mRNA level incubated for 24 hrs by RT-PCR analysis. Particulars: dose 5-20 µM. It is filed as functional, cell-based.
For series [4], the system named is RAW264.7. The series can be described thus: Anti-inflammatory activity in LPS-stimulated mouse RAW264.7 cells assessed as decrease in p65 level in nucleus at 5 to 20 uM preincubated for 24 hrs followed by LPS treatment for 30 mins by Western blot analysis. It is filed as functional, cell-based. Particulars: dose 5-20 µM, time 24.5 hrs.
For series [5], the system named is RAW264.7. The series can be described thus: Anti-inflammatory activity in mouse RAW264.7 cells assessed as decrease in LPS-induced TNF-alpha level incubated for 24 hrs by ELISA. It is filed as functional, cell-based. Particulars: dose 5-20 µM.
Series [6] relates to Mus musculus. The series can be described thus: Anti-inflammatory activity in endotoxemia ICR mouse model assessed as decrease in LPS-induced serum IL-6 level at 10 to 20 mg/kg, IG for 7 days consecutively followed by LPS treatment measured after 24 hrs by ELISA. Particulars: dose 10-20 mg/kg, time 8.0 day. The class given is functional, organism-based. Background: An ELISA detects its analyte on a solid surface through an enzyme-linked reagent.

Series [7] relates to RAW264.7. Kind of series: Anti-inflammatory activity in mouse RAW264.7 cells assessed as inhibition of LPS-induced NO production incubated for 24 hrs. The class given is functional, cell-based.
The subject of series [8] is Mus musculus. The series can be described thus: Anti-inflammatory activity in endotoxemia ICR mouse model assessed as decrease in LPS-induced serum TNF-alpha level at 10 to 20 mg/kg, IG for 7 days consecutively followed by LPS treatment measured after 24 hrs by ELISA. It is filed as functional, organism-based. Particulars: dose 10-20 mg/kg, time 8.0 day.
Series [9] concerns RAW264.7. The series can be described thus: Anti-inflammatory activity in mouse RAW264.7 cells assessed as decrease in LPS-induced IL-1beta mRNA level incubated for 24 hrs by RT-PCR analysis. The class given is functional, cell-based. Particulars: dose 5-20 µM.
Series [10] has as its system RAW264.7. Kind of series: Anti-inflammatory activity in mouse RAW264.7 cells assessed as decrease in LPS-induced iNOS level at 5 to 20 uM incubated for 24 hrs by Western blot analysis. It is filed as functional, cell-based. The settings on record: dose 5-20 µM.
The subject of series [11] is RAW264.7. Kind of series: Anti-inflammatory activity in mouse RAW264.7 cells assessed as decrease in LPS-induced p38 phosphorylation at 5 to 20 uM incubated for 24 hrs by Western blot analysis. It is filed as functional, cell-based. Particulars: dose 5-20 µM. In general terms: A western blot detects proteins with antibodies after separation by electrophoresis.
Series [12] deals with RAW264.7. Kind of series: Anti-inflammatory activity in mouse RAW264.7 cells assessed as decrease in LPS-induced PGE2 level incubated for 24 hrs by ELISA. It is filed as functional, cell-based. Particulars: dose 5-20 µM.
The subject of series [13] is RAW264.7. Kind of series: Anti-inflammatory activity in mouse RAW264.7 cells assessed as decrease in LPS-induced IL-1beta level incubated for 24 hrs by ELISA. The class given is functional, cell-based. The settings on record: dose 5-20 µM.
The subject of series [14] is RAW264.7. Kind of series: Anti-inflammatory activity in mouse RAW264.7 cells assessed as decrease in LPS-induced Akt phosphorylation at 5 to 20 uM preincubated for 24 hrs followed by LPS treatment for 30 mins by Western blot analysis. It is filed as functional, cell-based. The settings on record: dose 5-20 µM, time 24.5 hrs.
In series [15] the test system is RAW264.7. Kind of series: Anti-inflammatory activity in mouse RAW264.7 cells assessed as inhibition of LPS-induced NO production at 10 uM incubated for 24 hrs relative to control. It is filed as functional.
For series [16], the system named is RAW264.7. The series can be described thus: Anti-inflammatory activity in mouse RAW264.7 cells assessed as decrease in LPS-induced ERK phosphorylation at 5 to 20 uM incubated for 24 hrs by Western blot analysis. The class given is functional, cell-based. The settings on record: dose 5-20 µM.
For series [17], the system named is RAW264.7. The series can be described thus: Anti-inflammatory activity in mouse RAW264.7 cells assessed as decrease in LPS-induced COX-2 level at 5 to 20 uM incubated for 24 hrs by Western blot analysis. The settings on record: dose 5-20 µM. It is filed as functional, cell-based.
In series [18] the test system is RAW264.7. The series can be described thus: Effect on total p65 level in cytoplasm of LPS-stimulated mouse RAW264.7 cells at 5 to 20 uM preincubated for 24 hrs followed by LPS treatment for 30 mins by Western blot analysis. The class given is functional, cell-based. Particulars: dose 5-20 µM, time 24.5 hrs.
The test system of series [19] is RAW264.7. The series can be described thus: Cytotoxicity against mouse RAW264.7 cells assessed as cell viability at 20 uM incubated for 24 hrs by CCK8 assay. The class given is toxicity, cell-based. Particulars: raw264.7, 24 h. For orientation: Formazan colour is commonly taken as a measure of viable cells.
Series [20] has as its system Mus musculus. Kind of series: Anti-inflammatory activity in endotoxemia ICR mouse model assessed as decrease in LPS-induced serum IL-1beta level at 10 to 20 mg/kg, IG for 7 days consecutively followed by LPS treatment measured after 24 hrs by ELISA. The class given is functional, organism-based. Particulars: dose 10-20 mg/kg, time 8.0 day.
For series [21], the system named is RAW264.7. Kind of series: Anti-inflammatory activity in mouse RAW264.7 cells assessed as decrease in LPS-induced JNK phosphorylation at 5 to 20 uM incubated for 24 hrs by Western blot analysis. It is filed as functional, cell-based. The settings on record: dose 5-20 µM.
For series [22], the system named is RAW264.7. Kind of series: Anti-inflammatory activity in LPS-stimulated mouse RAW264.7 cells assessed as increase in I-kappa-B-alpha level at 5 to 20 uM preincubated for 24 hrs followed by LPS treatment for 30 mins by Western blot analysis. The settings on record: dose 5-20 µM, time 24.5 hrs. It is filed as functional, cell-based.

The source made the active and inactive calls. No cut-off for these calls is given here.

As for `Cc1ccc(/C=C/C(=O)N2CCN(C(=O)CC[C@@H](C)[C@H]3CC[C@H]4[C@@H]5[C@@H](O)C[C@@H]6C[C@H](O)CC[C@]6(C)[C@H]5CC[C@]34C)CC2)cc1`, the Activity entry in the series with RAW264.7 [1], with RAW264.7 [2], in the series on RAW264.7 [3], with RAW264.7 [5], with RAW264.7 [9] and in the series with RAW264.7 [12] was “Dose-Dependent Effect” in each case. Besides, the Activity result in the series with RAW264.7 [13] was “Dose-Dependent Effect”; with RAW264.7 [19], “Non-Toxic”. In addition, the outcome with RAW264.7 [4], in the series with Mus musculus [6], with Mus musculus [8], in the series on RAW264.7 [10], in the series on RAW264.7 [11] and in the series on RAW264.7 [14] was Active. The outcome in the series with RAW264.7 [16], in the series with RAW264.7 [17], in the series on Mus musculus [20], with RAW264.7 [21] and in the series on RAW264.7 [22] was Active. The concentration for half-maximal inhibition (IC50) in the series on RAW264.7 [7] (RAW264.7, 24 h) was 7.7 µM. For the same compound, in the series with RAW264.7 [7] (dose 1.25-20 µM), the inhibition result is “Dose-Dependent Effect”. In addition, the inhibition at 10 µM in the series with RAW264.7 [15] is over 50%. The result with RAW264.7 [18] was inactive.
